The source of these data is US9737523B2, “Anti-fibrogenic compounds, methods and uses thereof” (priority 2013, dated 2017).

In one test the test system is MMPs. Nature of the test: MMP activity in conditioned media of fibroblasts, SensoLyte 520 generic MMP assay (FRET). The class given is cell-based, human. The following applies: 50 μg/ml, 48 hours. The procedure: The activity of MMPs was assessed using a F-FAM/QXL™ 520 fluorescence resonance energy transfer (FRET) peptide as the MMP substrate (SensoLyte 520™ generic MMP assay kit, AnaSpec, Inc.™, Fremont, Calif.) according to the manufacturer's protocol. In brief, cells were treated with or without 50 μg/ml of kynurenine for 48 hours. Conditioned media were collected and incubated with 1 mM of APMA (4-aminophenyl-mercuric acetate, in component C, AnaSpect™) at 37° C. for 3 hrs. After activation MMPs with APMA, 50 μl/well in 96-well plate of conditioned media was mixed with 50 μl of MMP substrate solution. After incubated at room temperature for 60 minutes, the fluorescence intensity at EX/EM=490 nm/520 nm in each sample including the substrate control were measured using Infinite F500™ fluorescence microplate reader (Tecan Group Ltd™, Morrisville, N.C.).

The next test concerns MMP-3. Nature of the test: MMP-3 expression in human dermal fibroblasts, Western blot. It counts as cell-based. The note with it: various concentrations, 48 hours, dose-dependent. As for the experimental part: Cells were then harvested by trypsinization and western blot analysis was performed.
Cell debris was removed by centrifugation at 20,000×g for 10 minutes. The protein concentration in supernatant was determined using the MicroBCA™ method (Pierce™, Rockford, Ill.). Proteins in supernatant were mixed with protein sample loading buffer (final concentration: 60 mM Tris-HCl (pH 6.80), 2% SDS, 10% glycerol, 1.5% β-mercaptoethanol, 0.002% bromophenol blue) and size fractioned by 10% of SDS-polyacrylamide gel. After proteins were transferred onto nitrocellulose membrane by iBlot™ (Invitrogen Life Technologies™), non-specific binding were blocked with phosphate buffer saline twenty 20 (PBS-T) containing 5% skim milk for 1 hour. The membrane was then incubated with primary antibody overnight. After incubation with a secondary antibody for 1 hour, protein bands were visualized by an enhanced chemiluminescence (ECL™) detection system (Santa Cruz Biotechnology™, Santa Cruz, Calif.). […] The secondary antibodies were either goat anti-mouse IgG (H+L) HPR conjugate or goat anti-rabbit IgG (H+L) HPR conjugate (Bio-rad Laboratory™ (Mississauga, ON, Canada). Secondary antibodies were used at a concentration of 1:3000.

Another test concerns mouse splenocytes. Nature of the test: Immune factor protein microarray of conditioned media of ConA-activated splenocytes. It counts as cell-based. The following applies: 100 μg/mL, 48 hrs.
For a further test, the system named is dermal keratinocytes. Nature of the test: MMP-1 expression in primary dermal keratinocytes, Western blot. The class given is cell-based, human. The following applies: 12.5 to 150 μg/ml, 48 hours. The procedure:
Human foreskin keratinocytes were established as previously described (Ghahary et al., 1998). Cells were cultured in serum-free keratinocyte medium (KSFM; Invitrogen Life Technologies™) supplemented with bovine pituitary extract (50 μg/ml) and EGF (0.2 ng/ml). These cells were used at passages 2-5.
(§1) Similarly, other cells such as synoviocytes, IMR-90, keratinocytes, UMSCC and A549 were treated with kynurenine at concentrations of 12.5 to 150 μg/ml in appropriate media for each cell type as described above for 48 hours. Cells were then harvested for western blot analysis.
(§2) Cells were harvested by Trypsin/EDTA and lysed with cell lysis buffer containing 50 mM Tris-HCl (pH7.40), 150 mM NaCl, 10 mM EDTA, 5 mM EGTA, 1% TritonX-100™, 0.5% Igepal CA-630, 0.025% NaN3 and protease inhibitor cocktail (Sigma™). Cell debris was removed by centrifugation at 20,000×g for 10 minutes. The protein concentration in supernatant was determined using the MicroBCA™ method (Pierce™, Rockford, Ill.). Proteins in supernatant were mixed with protein sample loading buffer (final concentration: 60 mM Tris-HCl (pH 6.80), 2% SDS, 10% glycerol, 1.5% β-mercaptoethanol, 0.002% bromophenol blue) and size fractioned by 10% of SDS-polyacrylamide gel. […]
In general terms: A western blot detects proteins with antibodies after separation by electrophoresis.

The test system of a further test is UMSCC. The experiment in a line: MMP-1 expression in squamous cell carcinoma cell line UMSCC, Western blot. The note with it: 12.5 to 150 μg/ml, 48 hours. It counts as cell-based, human. As for the experimental part: The squamous cell carcinoma (UMSCC) cell line derived from patients with head and neck cancer (ATCC™, Manassas, Va.) were maintained in RPMI-1640 medium with 10% FBS. The Human keratinocyte cell line HACAT (ATCC) and the carcinomic human alveolar basal epithelial cell line A549 (ATCC™) were cultured in DMEM with 10% FBS. The diploid lung fibroblasts IMR-90 (ATCC™) were maintained in Minimum Essential Medium (MEM, Invitrogen™) with 10% FBS.
as §1, §2

The next test deals with MMP-1. The experiment in a line: MMP-1 expression in human dermal fibroblasts, Western blot. It counts as cell-based. The note with it: for MMP-1 expression: 48 hours.
A further test concerns synoviocytes. Nature of the test: MMP-1 expression in synoviocytes, Western blot. It counts as cell-based, human. The following applies: 12.5 μg/ml to 150 μg/ml, 48 hours. As for the experimental part: Synoviocytes were obtained by enzymatic digestion of synovial membrane from patients with rheumatoid arthritis during joint replacement with 1 mg/ml collagenase (Sigma™) in RPMI1640 (Invitrogen Life Technologies™) for 4 hours at 37° C. Dissociated cells were plated in synoviocyte growth medium (Cell Applications Inc.™, San Diego, Calif.) supplemented with penicillin G sodium (100 U/mL), streptomycin sulfate (100 μg/mL), and amphotericin B (0.25 μg/mL).
as §1, §2

The subject of the next test is MMP-2. The experiment in a line: MMP-2 expression in human dermal fibroblasts, Western blot. The class given is cell-based. The following applies: various concentrations, 48 hours. The procedure:
In another set of experiments, fibroblasts at 80% confluence were treated with either kynurenine or tryptophan at the indicated concentrations as mentioned in the result section in DMEM containing 2% FBS and antibiotics for 48 hours. Cells were then harvested by trypsinization and western blot analysis was performed.
as §2, with “gel. After proteins were transferred onto nitrocellulose membrane by iBlot™ (Invitrogen Life Technologies™), non-specific binding were blocked with phosphate buffer saline twenty 20 (PBS-T) containing 5% skim milk for 1 hour. The membrane was then incubated with primary antibody overnight.” for “gel.”

Turning to `Nc1ccccc1C(=O)CC(N)C(=O)O` (racemic) [kynurenine], in the test with MMPs, the “mean activity of MMPs in conditioned media versus control media” value is “significantly higher”. The MMP-3 expression result with MMP-3 was “significantly increased”. Also, the IL-17 production entry with mouse splenocytes is listed as “significantly decrease”. Further, in the test on mouse splenocytes, the “proinflammatory cytokine and chemokine production (IL-1, IL-2, CXCL9, CXCL10)” value was “immune suppressive effect”. Further, the “MMP-1 expression versus untreated controls” value in the test on dermal keratinocytes and in the test with UMSCC was “did not significantly differ” in each case. Besides, the “MMP1 protein expression 48 hours after treatment removal” value in the test with MMP-1 (100 μg/ml for 48 hours, then 48 hours after removal) is reported as “gradually reduced to normal levels”. In the test on MMP-1 (100 μg/ml for 48 hours, then another 24 hours after removal), the “MMP1 expression versus untreated cells after treatment removal” value is given as “remained significantly higher”. In addition, in the test with MMP-1 (100 μg/ml, at 48 hours after treatment), the MMP1 expression entry is listed as “marked increase”. In addition, the MMP-1 expression result in the test with MMP-1 (25-150 μg/ml) is “significantly increased”; in the test with MMP-1 (kynurenine isoforms, 50 μg/ml) it was “increase”; in the test with synoviocytes, “up-regulated”. The “concentration that could stimulate MMP-1 expression (as little as)” value in the test with MMP-1 (dermal fibroblasts, data not shown) came out at 12.5 µg/mL. The “MMP-2 expression versus untreated fibroblasts” value with MMP-2 is listed as “no significant difference”.
